Measured values as given in patent publication US7217703B2, “8-(2-hydroxyphenoxy)octyldiethanolamine and salts thereof for delivery of active agents” (Emisphere Technologies, Inc., priority 2004, dated 2007).

Experiment: Oral absorption of Ibandronate in rats (urine Ibandronate, 16 h collection, GC/MS)
Assay type: in vivo, male Sprague-Dawley rats
Conditions: oral gavage, rat, urine 0-16 h post-dosing
Description: Oral absorption studies were performed in rats to evaluate the delivery of the bisphosphonate, Ibandronate, when co-administered with a delivery agent compound of the present invention. Sprague-Dawley rats were administered Ibandronate alone or in combination with a delivery agent compound by oral gavage. Urine samples were collected up to 16 hours post-dosing for Ibandronate quantitations. […]
Urine Ibandronate levels from treated rats were determined using a GC/MS method with a standard calibration range of 0–2000 ng/mL and a limit of quantitation (LOQ) of 2.5 ng/ml. Quality control (QC) samples were prepared fresh daily and were analyzed with samples from treated rats. […]
The amount of Ibandronate excreted in the urine is the dose response and was plotted as a straight line against the Ibandronate dose (linear dose-response relationship was assumed). The relative potency of the four delivery agent-containing Ibandronate formulations were calculated against the control formulations (without delivery agent) using a Student's t-test. […]

Mean urine Ibandronate concentration (Ibandronate 5 mg/kg alone): 426.8 | Mean urine Ibandronate concentration (Ibandronate 15 mg/kg alone): 4157.5
Structure (SMILES): CCCCCN(C)CCC(O)(P(=O)(O)O)P(=O)(O)O [Ibandronate]
